Test results reported in ChEMBL document CHEMBL1938256, “Synthesis and DNA cleavage studies of novel quinoline oxime esters” (Bioorg Med Chem Lett, 2012).
Active and inactive are the calls of the source. The calls are words filed in the database; no cut-off is given here.

Assays:
Assay type in all cases: nucleic-acid assay
[1] = system: Nucleic Acid; experiment: Induction of Escherichia coli pUC19 DNA cleavage assessed as conversion of supercoiled DNA into nicked circular form at 40 to 80 uM by neutral agarose gel electrophoresis in presence of UV light
[2] = system: Nucleic Acid; experiment: Induction of UV light-induced Escherichia coli pUC19 DNA cleavage assessed as conversion of supercoiled DNA into nicked form at 80 uM by neutral agarose gel electrophoresis
[3] = system: Nucleic Acid; experiment: Induction of UV light-induced Escherichia coli pUC19 DNA cleavage assessed as conversion of supercoiled DNA into linear form at 80 uM by neutral agarose gel electrophoresis

`O=C(O/N=C/c1cc2ccccc2nc1Cl)c1ccc(O)cc1` was tested, and the Activity [1] was “Active”, the Activity [2] was “inactive” and the Activity [3] was “inactive”.

For `O=C(O/N=C/c1cc2ccccc2nc1Cl)c1ccccc1`, the Activity [1] was “Active”, the Activity [2] was “inactive” and the Activity [3] was “inactive”.

With `O=C(O/N=C/c1cc2ccccc2nc1Cl)c1ccc(F)cc1` the Activity [1] was “Active”, the Activity [2] was “Active” and the Activity [3] was “Active”.

With `O=C(O/N=C/c1cc2ccccc2nc1Cl)c1ccc(Br)cc1` the Activity [1] was “Active”, the Activity [2] was “Active” and the Activity [3] was “Active”.

In the case of `COc1ccc(C(=O)O/N=C/c2cc3ccccc3nc2Cl)cc1`, the Activity [1] is reported as “Active”, the Activity [2] is reported as “inactive” and the Activity [3] is reported as “inactive”.

`O=C(O/N=C/c1cc2ccccc2nc1Cl)c1cc([N+](=O)[O-])cc([N+](=O)[O-])c1` was tested, and the Activity [1] was “Active”, the Activity [2] was “Active” and the Activity [3] was “Active”.

In the case of `O=C(O/N=C/c1cc2ccccc2nc1Cl)c1ccccc1F`, the Activity [1] is reported as “Active”, the Activity [2] is reported as “Active” and the Activity [3] is reported as “Active”.

In the case of `O=C(O/N=C/c1cc2ccccc2nc1Cl)c1ccc(Cl)cc1`, the Activity [1] is reported as “Active”, the Activity [2] is reported as “Active” and the Activity [3] is reported as “Active”.

For `O=C(O/N=C/c1cc2ccccc2nc1Cl)c1ccc([N+](=O)[O-])cc1`, the Activity [1] was “Active”, the Activity [2] was “Active” and the Activity [3] was “Active”.
